The results in this text go back to US20150190369A1, “QUERCETIN-3-GLUCOSIDE AND USES THEREOF” (priority 2012, published 2015).

The subject of one test is ABCA1. The test can be described thus: Immunoblotting for ABCA1 in MIN6 β-cells. Format: cell-based, mouse. Particulars: MIN6, Q3G-treated. Here is the method:
(§1) The corresponding photographs of the immunoblotting results are also shown. MIN6 cells were incubated for 24 h in the presence of 16 μM Q3G. Cell lysates were analyzed by semi-quantitative immunoblotting using different antibodies successively.
(§2) Mouse insulinoma MIN6 cells were cultured in a 5% CO2-95% air atmosphere at 37° C. in DMEM medium containing 10% heat-inactivated fetal bovine serum, 1 mM Na-pyruvate, 2 mM L-glutamine, 25 mM D-glucose, and 28 μM β-mercaptoethanol. Q3G at a specific final concentration was supplemented to the culture medium and incubation was conducted for a selected length of time. Media were collected, spun at 600 g to sediment suspended cells, supplemented with 0.5 volumes of 3×RIPA-PIC (1×: 50 mM Tris-HCl, pH 8, 150 mM NaCl, 1% NP-40, 0.5% Na-deoxycholate and 0.1% SDS and PIC). Cells were lysed in 1×RIPA-PIC for immuno-blotting, or in RNA extraction buffer for qRT-PCR.
(§3) Cell lysates were fractionated by SDS-PAGE and electrophoretically transferred onto a polyvinylidene fluoride membrane. […] The signal was captured on X-ray film and immunoreactive bands analyzed by densitometry on a Syngene's ChemiGenius^2XE Bio Imaging System (Cambridge, Mass.) within the dynamic range of the instrument. […]
On the technique in general: Immunoblotting shows a protein as a band on a membrane.

A further test has as its system PCSK9. Put plainly: ELISA for PCSK9 secreted into medium by MIN6 β-cells. The format is cell-based, mouse. Particulars: MIN6, 24 h, different concentrations of Q3G. As to the method:
FIG. 15 a graph illustrating the effect of exposure to Q3G on PCSK9 secretion in MIN6 β-cells. MIN6 cells were incubated for 24 h in the presence of the specified concentration of Q3G. Media were collected and assayed by ELISA for PCSK9 content.
as §2
The assays for PCSK9 and insulin were conducted as prescribed by kit manufacturers, using a Thermo Scientific plate reader. For example, PCSK9 levels in conditioned media were measured using the human PCSK9 ELISA kit from Circulex, as specified the manufacturer. […] After 15 min, the reaction was stopped with […] and the absorbance of the reaction mixtures measured by spectrophotometry at 450 nm. […]

The target of another test is recombinant human PCSK9 (Homo sapiens, UniProt Q8NBP7). The test can be described thus: UV spectrometry of PCSK9-Q3G interaction. Format: binding. Particulars: 5 μM PCSK9 with equimolar Q3G in PBS, 5-min incubation. Here is the method: The data discussed herein indicate that chronic exposure of Huh7 cells to Q3G reduces PCSK9 accumulation in the culture medium by delaying its transit through the secretory pathway. The delay appears not to be caused by impaired proteolytic processing of its precursor. Quercetin is known to bind, covalently in some cases, to selected cellular proteins. […] Purified recombinant PCSK9 (5μM) was mixed with or without equimolar amount of Q3G in phosphate-buffered saline. After a 5-min incubation, the UV spectrum of the mix was taken. […] It is believed that such a binding may alter PCSK9 conformation and/or retard its navigation through the secretory pathway, and, ultimately, diminish its LDL-degrading activity.
Chain of recombinant human PCSK9 (Q8NBP7 153-692): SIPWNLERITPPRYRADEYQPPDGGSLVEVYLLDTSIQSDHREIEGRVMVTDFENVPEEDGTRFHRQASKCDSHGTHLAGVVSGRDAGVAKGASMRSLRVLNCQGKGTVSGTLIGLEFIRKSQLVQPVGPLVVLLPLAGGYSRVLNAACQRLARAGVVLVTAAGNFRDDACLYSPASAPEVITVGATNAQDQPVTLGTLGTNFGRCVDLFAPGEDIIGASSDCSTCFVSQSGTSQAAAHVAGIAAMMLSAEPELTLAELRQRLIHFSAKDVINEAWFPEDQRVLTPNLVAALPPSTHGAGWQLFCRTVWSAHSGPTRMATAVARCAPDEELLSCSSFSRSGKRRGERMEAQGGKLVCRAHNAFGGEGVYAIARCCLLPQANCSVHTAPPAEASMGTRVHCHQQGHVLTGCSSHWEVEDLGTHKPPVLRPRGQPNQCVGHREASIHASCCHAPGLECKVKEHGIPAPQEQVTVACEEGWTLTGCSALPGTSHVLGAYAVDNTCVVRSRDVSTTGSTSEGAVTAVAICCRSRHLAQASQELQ

A further test deals with Huh7 cells. Put plainly: LDL uptake assay with bodipy-LDL. Format: cell-based, human. Particulars: Huh7, 5 μM Q3G for 24 h. As to the method:
Huh7 cells were seeded in 96-well black-bottom plates at 4×10^4 cells/well in 0.1 ml complete medium and allowed to attach by overnight incubation at 37° C. They were rinsed with PBS-D, overlaid with 0.1 ml of DMEM/10% LPDS and incubated at 37° C. for 24 h. After a PBS-D rinse, they were overlaid with 0.1 ml DMEM/0.5% LPDS containing or not 5 μM Q3G and incubated 37° C. for 24 h. To assay for LDL uptake ability, cells were rinsed, first with pre-warmed (37° C.) PBS-D, then with pre-warmed DMEM/0.5% LPDS. They were overlaid with 75 μl of the latter medium containing […] bodipy-LDL, and then incubated at 37° C. for 15 min or 30 min to allow LDLR-mediated endocytosis of the fluorescent lipoprotein. […] Intracellular fluorescence was measured in a SpectraMax Gemini XS fluorescence plate reader (Molecular Devices) at the excitation and emission wavelengths of 485 and 535 nm, respectively. Non-specific fluorescence was measured by incubating cells in medium containing bodipy-LDL (20 μg/ml) and a 12.5× excess of non-fluorescent LDL (250 μg/ml).
To verify this prediction, cells were incubated overnight in medium supplemented with LPDS to promote expression of the LDLR; they were then treated with 5 μM Q3G for 24 h and exposed to fluorescent bodipy-LDL for 15 or 30 min; after washing, accumulated intracellular LDL was measured by fluorescence spectrometry.

The subject of another test is proPCSK9. Put plainly: Immunoblotting for PCSK9/proPCSK9 in MIN6 β-cells. The format is cell-based, mouse. Particulars: MIN6, 24 h, 16 μM Q3G versus untreated. As to the method: as §1, §2, §3

“Also recorded” adds a separate entry of the source.

Consider `O=c1c(O[C@@H]2O[C@H](CO)[C@@H](O)[C@H](O)[C@H]2O)c(-c2ccc(O)c(O)c2)oc2cc(O)cc(O)c12` [Q3G, quercetin-3-O-β-D-glucoside], for which the “relative amount of ABCA1 protein compared with mRNA” value in the test on ABCA1 is listed as “in concordance with the relative amounts of mRNA”. In addition, the “PCSK9 in the medium (secretion)” value in the test with PCSK9 is reported as “paralleled that of the transcript; also recorded: stimulates”. Moreover, the “interaction with PCSK9 (changes of optical density and spectral profile)” value on recombinant human PCSK9 is recorded as “suggest interaction”. In addition, the “accumulated intracellular LDL versus untreated cells” value in the test on Huh7 cells (bodipy-LDL for 15 min) is listed as 4 fold; with Huh7 cells (bodipy-LDL for 30 min), 2.5 fold. In addition, the “intracellular content of proPCSK9” value with proPCSK9 is listed as “higher”.
